Experimental data as given in paper PMC10535292, “Quinoline- and Isoindoline-Integrated Polycyclic Compounds as Antioxidant, and Antidiabetic Agents Targeting the Dual Inhibition of α-Glycosidase and α-Amylase Enzymes” (Pharmaceuticals, 2023).
Read-outs that look alike come from different tables or passages of the source.

What was measured:
[1] = target: T1, type-VI B porcine pancreatic α-amylase (Sus scrofa, UniProt P00690); assay: α-Amylase inhibition with soluble starch (1%); format: biochemical; conditions: mean ± SE, triplicate
T1 construct: type-VI B porcine pancreatic α-amylase; from tissue; host or cells: porcine pancreas (preparation grade 'type-VI B')
T1 sequence (P00690 16-511): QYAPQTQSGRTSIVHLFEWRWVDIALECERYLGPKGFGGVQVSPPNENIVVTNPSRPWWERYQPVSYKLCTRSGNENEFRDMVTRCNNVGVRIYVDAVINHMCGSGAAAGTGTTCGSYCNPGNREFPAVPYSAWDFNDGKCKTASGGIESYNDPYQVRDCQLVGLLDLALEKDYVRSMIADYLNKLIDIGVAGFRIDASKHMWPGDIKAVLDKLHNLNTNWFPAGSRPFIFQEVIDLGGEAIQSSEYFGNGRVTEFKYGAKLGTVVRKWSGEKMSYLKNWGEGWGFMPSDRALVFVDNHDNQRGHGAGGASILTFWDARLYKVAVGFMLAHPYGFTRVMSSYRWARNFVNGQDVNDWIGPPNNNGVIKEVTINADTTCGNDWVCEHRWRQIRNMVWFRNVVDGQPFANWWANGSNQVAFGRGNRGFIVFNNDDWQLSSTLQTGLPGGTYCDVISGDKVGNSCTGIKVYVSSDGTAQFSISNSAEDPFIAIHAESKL
Experimental: Moreover, similar tests were carried out to reveal if the synthesized molecules inhibited α-amylase, another important carbohydrate-hydrolyzing enzyme.
(§1) Inhibitory activity of α-amylase and α-glycosidase was expressed as percent inhibition, calculated using the following formula. Inhibition (%) = (A control − A sample)/A control × 100
(§2) The IC50 values were obtained from a graph that correlated the percentage of the inhibition of each sample with its concentration. Each experiment included three replicates, along with appropriate blanks.

[2] = ABTS cation radical scavenging assay; conditions: mean ± SE, triplicate; read-out: EC50 Radical Scavenging Activities ABTS
Experimental: (§3) The ability of the samples to scavenge free radicals was evaluated using a range of in vitro tests, including DPPH, ABTS, and superoxide anion radicals, with BHA utilized as a positive control.
(§4) The DPPH free radical, ABTS cation radical, and superoxide anion radical scavenging approaches were used in the antioxidant activity of the present study. The capacity for the radical scavenging was represented by EC50 values. […] Every sample was observed three times. Butylated hydroxyanisole (BHA) is the positive control drug in this evaluation of antioxidant activity.

yeast α-glycosidase [3] = target: T2, yeast α-glycosidase (Saccharomyces cerevisiae, UniProt P38158); assay: biochemical
T2 sequence (P38158 whole entry): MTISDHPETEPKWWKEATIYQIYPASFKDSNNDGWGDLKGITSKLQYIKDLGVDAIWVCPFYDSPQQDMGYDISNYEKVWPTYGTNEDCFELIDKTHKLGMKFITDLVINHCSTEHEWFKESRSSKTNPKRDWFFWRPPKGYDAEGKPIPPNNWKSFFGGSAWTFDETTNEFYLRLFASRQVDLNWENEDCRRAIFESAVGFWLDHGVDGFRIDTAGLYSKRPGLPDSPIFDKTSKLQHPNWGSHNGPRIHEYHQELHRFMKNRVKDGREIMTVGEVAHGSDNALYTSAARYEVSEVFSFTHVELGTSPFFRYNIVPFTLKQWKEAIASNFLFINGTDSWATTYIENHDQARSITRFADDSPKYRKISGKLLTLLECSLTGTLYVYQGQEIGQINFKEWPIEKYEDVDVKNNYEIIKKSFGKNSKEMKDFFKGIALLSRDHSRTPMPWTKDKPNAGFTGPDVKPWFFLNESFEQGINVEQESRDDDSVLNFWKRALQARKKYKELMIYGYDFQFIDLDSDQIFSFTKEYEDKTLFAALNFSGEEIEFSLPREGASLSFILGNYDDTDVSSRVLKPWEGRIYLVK
Excerpt: as §1, §2

[4] = Superoxide anion radical scavenging assay; conditions: mean ± SE, triplicate; read-out: EC50 Radical Scavenging Activities Superoxide Anion Radicals
Experimental: as §3, §4

[5] = DPPH free radical scavenging assay; conditions: mean ± SE, triplicate; read-out: EC50 Radical Scavenging Activities DPPH
Experimental: as §3, §4

yeast α-glycosidase [6] = target: T2, yeast α-glycosidase; assay: Kinetic analysis of α-glycosidase inhibition (Lineweaver–Burk, Dixon plots); format: biochemical
Experimental: (§5) For the kinetic studies, α-glycosidase and α-amylase were incubated with designated concentrations of the substrate pNPG and starch, respectively, in the absence (control) or presence of IC20-, IC40-, and IC60-inhibitory concentrations of 7d. The mode of inhibition, [Km], and [Vmax] values were determined by graphical means using Lineweaver–Burk plots. […] The kinetic results established that the maximum velocity (Vmax) of the 7d reaction (with increasing concentrations) remained constant and was catalyzed by α-glycosidase and α-amylase (Table 3).
(§6) The enzyme kinetics of the compounds’ inhibition of the glycosidase activity were examined using different concentrations of the substrate against the IC20, IC40, and IC60 inhibitory concentrations of the compounds, as previously reported. The type of inhibition, Km, and Vmax were calculated using a double-reciprocal plot of the substrate concentration and velocity (1/V against 1/[pNPG]). The inhibitory constant (Ki) was also determined using the Dixon plot.

α-amylase = target: T3, α-amylase (Sus scrofa, UniProt P00690); assay: Kinetic analysis of α-amylase inhibition (Lineweaver–Burk, Dixon plots); format: biochemical, porcine
T3 construct: type-VI B porcine pancreatic α-amylase; from tissue; host or cells: porcine pancreas (preparation grade 'type-VI B')
T3 sequence (P00690 16-511): T1 sequence (P00690 16-511)
Experimental: as §5, §6

Compound	IC50 [1]	EC50 [2]	IC50 (yeast α-glycosidase [3])	EC50 [4]	EC50 [5]	melting point	also measured
N#Cc1c(-c2ccc([N+](=O)[O-])cc2)nn(C(=O)COc2cccc3cccnc23)c1N [4a, 5-Amino-3-(4-nitrophenyl)-1-(2-(quinolin-8-yloxy)acetyl)-1H-pyrazole-4-carbonitrile]	720 ± 510 µM	1300 ± 1000 µM	240 ± 50 µM	1110 ± 270 µM	1500 ± 770 µM	157 to 159 °C	–
N#Cc1c(-c2ccccc2O)nn(C(=O)COc2cccc3cccnc23)c1N [4c, 5-Amino-3-(2-hydroxyphenyl)-1-(2-(quinolin-8-yloxy)acetyl)-1H-pyrazole-4-carbonitrile]	1600 ± 770 µM	7860 ± 550 µM	1110 ± 740 µM	5950 ± 1050 µM	4550 ± 1570 µM	157 to 159 °C	–
N#Cc1c(-c2ccc([N+](=O)[O-])cc2)cc(N2C(=O)c3ccccc3C2=O)nc1N [7b, 2-Amino-6-(1,3-dioxoisoindolin-2-yl)-4-(4-nitrophenyl)nicotinonitrile]	1500 ± 1500 µM	2600 ± 770 µM	1050 ± 880 µM	2300 ± 1990 µM	2000 ± 150 µM	153 to 155 °C	–
N#Cc1c(-c2ccc([N+](=O)[O-])cc2)cc(N2C(=O)c3ccccc3C2=O)[nH]c1=O [8b, 6-(1,3-Dioxoisoindolin-2-yl)-4-(4-nitrophenyl)-2-oxo-1,2-dihydropyridine-3-carbonitrile]	1600 ± 830 µM	9880 ± 2250 µM	1010 ± 40 µM	6000 ± 2450 µM	4500 ± 790 µM	221 to 223 °C	–
N#Cc1c(-c2ccccc2O)cc(N2C(=O)c3ccccc3C2=O)[nH]c1=O [8c, 6-(1,3-Dioxoisoindolin-2-yl)-4-(2-hydroxyphenyl)-2-oxo-1,2-dihydropyridine-3-carbonitrile]	3550 ± 1550 µM	2440 ± 670 µM	1800 ± 720 µM	5150 ± 770 µM	2500 ± 1110 µM	205 to 207 °C	–
N#Cc1c(-c2ccc(Cl)c(Cl)c2O)cc(N2C(=O)c3ccccc3C2=O)[nH]c1=O [8d, 4-(3,4-Dichloro-2-hydroxyphenyl)-6-(1,3-dioxoisoindolin-2-yl)-2-oxo-1,2-dihydropyridine-3-carbonitrile]	5000 ± 3000 µM	9990 ± 1890 µM	2220 ± 110 µM	5220 ± 850 µM	5050 ± 2220 µM	233 to 235 °C	–
COc1ccc(O)c(C(C)(C)C)c1 [BHA, Butylated hydroxyanisole, reference compound]	–	640 ± 310 µM	–	950 ± 170 µM	800 ± 320 µM	–	–
NNC(=O)COc1cccc2cccnc12 [compound 1, 2-(Quinolin-8-yloxy)acetohydrazide]	900 ± 1040 µM	4500 ± 1140 µM	–	4500 ± 1110 µM	4650 ± 2250 µM	137 to 139 °C	IC50 (yeast α-glycosidase [3]; mean ± SE, triplicate, read-out: IC50 α-Glycosidase): 500 ± 660 µM
CC(=NNC(=O)COc1cccc2cccnc12)c1ccc(N2C(=O)c3ccccc3C2=O)cc1 [compound 3, N’-(1-(4-(1,3-Dioxoisoindolin-2-yl)phenyl)ethylidene)-2-(quinolin-8-yloxy)acetohydrazide]	910 ± 1550 µM	1350 ± 1100 µM	470 ± 350 µM	1100 ± 550 µM	1600 ± 1020 µM	211 to 213 °C	–
N#Cc1c(-c2ccc(Cl)cc2)nn(C(=O)COc2cccc3cccnc23)c1N [compound 4b, 5-Amino-3-(4-chlorophenyl)-1-(2-(quinolin-8-yloxy)acetyl)-1H-pyrazole-4-carbonitrile]	1550 ± 1670 µM	4750 ± 420 µM	990 ± 330 µM	4500 ± 2000 µM	5000 ± 250 µM	163 to 165 °C	–
S=C1N=NC(COc2cccc3cccnc23)=N1 [compound 6, 5-((Quinolin-8-yloxy)methyl)-3H-1,2,4-triazole-3-thione]	3650 ± 2470 µM	8010 ± 330 µM	1500 ± 2000 µM	6100 ± 1540 µM	3330 ± 860 µM	187 to 189 °C	–
N#Cc1c(-c2ccccc2)cc(N2C(=O)c3ccccc3C2=O)nc1N [compound 7a, 2-Amino-6-(1,3-dioxoisoindolin-2-yl)-4-phenylnicotinonitrile]	3500 ± 1000 µM	2250 ± 220 µM	1780 ± 60 µM	2250 ± 660 µM	1990 ± 90 µM	167 to 169 °C	–
N#Cc1c(-c2ccccc2O)cc(N2C(=O)c3ccccc3C2=O)nc1N [compound 7c, 2-Amino-6-(1,3-dioxoisoindolin-2-yl)-4-(2-hydroxyphenyl)nicotinonitrile]	260 ± 320 µM	1230 ± 480 µM	110 ± 40 µM	1000 µM	1000 ± 850 µM	160 to 162 °C	–
N#Cc1c(-c2ccc(Cl)c(Cl)c2O)cc(N2C(=O)c3ccccc3C2=O)nc1N [compound 7d, 2-Amino-4-(3,4-dichloro-2-hydroxyphenyl)-6-(1,3-dioxoisoindolin-2-yl)nicotinonitrile]	210 ± 60 µM	520 ± 250 µM	70 ± 100 µM	930 ± 120 µM	650 ± 30 µM	–	IC20 (yeast α-glycosidase [6]): 30 µM; Ki (dissociation constant) (yeast α-glycosidase [6]; α-glycosidase, Dixon plot, mean ± SE): 0.47 mg; Mode of Inhibition (yeast α-glycosidase [6]; α-glycosidase, Lineweaver–Burk plot): competitive inhibition; 1/Vmax (reciprocal maximum velocity) (yeast α-glycosidase [6]; α-glycosidase, treatment IC20 0.03 μg): 28.82 10^3 (µM/min)^−1; 1/Vmax (reciprocal maximum velocity) (yeast α-glycosidase [6]; α-glycosidase, treatment IC40 0.06 μg): 29.00 10^3 (µM/min)^−1; 1/Vmax (reciprocal maximum velocity) (yeast α-glycosidase [6]; α-glycosidase, treatment IC60 0.08 μg): 29.29 10^3 (µM/min)^−1; Ki (dissociation constant) (α-amylase; Dixon plot, mean ± SE): 0.75 mg; Mode of Inhibition (α-amylase; Lineweaver–Burk plot): competitive inhibition; IC20 (α-amylase; inhibitory concentration used in kinetics): 80 µM; 1/Vmax (reciprocal maximum velocity) (α-amylase; treatment IC20 0.08 μg): 13.01 10^3 (µM/min)^−1; 1/Vmax (reciprocal maximum velocity) (α-amylase; treatment IC40 0.16 μg): 13.90 10^3 (µM/min)^−1; 1/Vmax (reciprocal maximum velocity) (α-amylase; treatment IC60 0.25 μg): 13.15 10^3 (µM/min)^−1
N#Cc1c(-c2ccccc2)cc(N2C(=O)c3ccccc3C2=O)[nH]c1=O [compound 8a, 6-(1,3-Dioxoisoindolin-2-yl)-2-oxo-4-phenyl-1,2-dihydropyridine-3-carbonitrile]	880 ± 360 µM	10000 ± 1170 µM	1000 µM	5780 ± 3010 µM	3250 ± 1230 µM	216 to 218 °C	–
